Four molecules from patent publication US6388105B1, “Benzofuran, indole or benzothiophene 2,4-pentadienoic acid derivatives having selective activity for retinoid X (RXR) receptors” (Allergan Sales, Inc., priority 2001, dated 2002) can be followed below.

In experiment [1] the target is T1, RXRα (Homo sapiens, UniProt P19793).
T1 construct: expressed in transfected cells
T1 sequence (P19793 1-462): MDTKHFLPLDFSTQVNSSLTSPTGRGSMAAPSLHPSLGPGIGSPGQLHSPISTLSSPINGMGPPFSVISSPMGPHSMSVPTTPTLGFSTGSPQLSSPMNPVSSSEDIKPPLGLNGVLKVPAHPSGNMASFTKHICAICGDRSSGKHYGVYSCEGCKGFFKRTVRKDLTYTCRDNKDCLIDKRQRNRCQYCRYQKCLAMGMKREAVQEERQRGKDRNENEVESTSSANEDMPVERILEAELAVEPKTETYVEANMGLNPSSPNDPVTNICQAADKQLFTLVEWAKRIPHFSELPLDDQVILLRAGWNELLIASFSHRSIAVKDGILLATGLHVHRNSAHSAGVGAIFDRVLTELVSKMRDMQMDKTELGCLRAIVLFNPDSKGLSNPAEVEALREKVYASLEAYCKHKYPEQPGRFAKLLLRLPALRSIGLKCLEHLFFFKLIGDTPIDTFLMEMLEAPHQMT
Briefly: holoreceptor transactivation assay, RXRα. The experiment is classed as cell-based. Particulars: for EC50: read-out: EC50 (nM) RXR α. The text has this: (§1) A holoreceptor transactivation assay and a ligand binding assay which measure the antagonist/agonist like activity of the compounds of the invention, or their ability to bind to the several retinoid receptor subtypes, respectively, are described in published PCT Application No. WO WO93/11755 (particularly on pages 30-33 and 37-41) published on Jun. 24, 1993, the specification of which is also incorporated herein by reference. A detailed experimental procedure for holoreceptor transactivations has been described by Heyman et al. Cell 68, 397-406, (1992); Allegretto et al. J. Biol. Chem. 268, 26625-26633, and Mangelsdorf et al. The Retinoids: Biology, Chemistry and Medicine, pp 319-349, Raven Press Ltd., New York, which are expressly incorporated herein by reference. The results obtained in this assay are expressed in EC50 numbers, as they are also in the chimeric receptor transactivation assay. The results of ligand binding assay are expressed in Kd numbers. (See Cheng et al. Biochemical Pharmacology Vol. 22 pp 3099-3108, expressly incorporated herein by reference.)
(§2) Table 1 discloses the activity of certain exemplary compounds of the invention in the above-described holoreceptor transactivation assay and a ligand binding assays. Particularly, the transactivation data pertaining to RAR receptors were obtained in the chimeric assay, and the data pertaining to transactivation of RXR receptors were obtained in the holoreceptor transactivation assay.

The target in experiment [2] is T2, RXRβ (Homo sapiens, UniProt P28702).
T2 construct: expressed in transfected cells
T2 sequence (P28702 1-533): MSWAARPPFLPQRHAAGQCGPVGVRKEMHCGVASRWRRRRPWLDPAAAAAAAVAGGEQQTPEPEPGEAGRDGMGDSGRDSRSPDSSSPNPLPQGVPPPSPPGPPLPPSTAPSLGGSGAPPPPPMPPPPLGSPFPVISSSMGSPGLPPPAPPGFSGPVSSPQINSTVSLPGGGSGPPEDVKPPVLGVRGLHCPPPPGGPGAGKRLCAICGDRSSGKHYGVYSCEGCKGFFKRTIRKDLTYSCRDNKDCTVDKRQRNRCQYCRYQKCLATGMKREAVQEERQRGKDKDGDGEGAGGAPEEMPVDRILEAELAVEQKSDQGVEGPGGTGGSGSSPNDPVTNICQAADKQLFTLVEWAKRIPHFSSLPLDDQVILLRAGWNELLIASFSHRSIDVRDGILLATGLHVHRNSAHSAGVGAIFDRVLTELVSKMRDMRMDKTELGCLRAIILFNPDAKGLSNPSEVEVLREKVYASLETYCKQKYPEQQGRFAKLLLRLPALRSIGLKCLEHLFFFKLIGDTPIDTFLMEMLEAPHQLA
The experiment is described as follows: ligand binding assay, RXRβ. Particulars: read-out: Kd (nM) RXR β.
Text: as §1, §2

Experiment [3] concerns the target T3, RXRγ (Homo sapiens, UniProt P48443).
T3 construct: expressed in transfected cells
T3 sequence (P48443 1-463): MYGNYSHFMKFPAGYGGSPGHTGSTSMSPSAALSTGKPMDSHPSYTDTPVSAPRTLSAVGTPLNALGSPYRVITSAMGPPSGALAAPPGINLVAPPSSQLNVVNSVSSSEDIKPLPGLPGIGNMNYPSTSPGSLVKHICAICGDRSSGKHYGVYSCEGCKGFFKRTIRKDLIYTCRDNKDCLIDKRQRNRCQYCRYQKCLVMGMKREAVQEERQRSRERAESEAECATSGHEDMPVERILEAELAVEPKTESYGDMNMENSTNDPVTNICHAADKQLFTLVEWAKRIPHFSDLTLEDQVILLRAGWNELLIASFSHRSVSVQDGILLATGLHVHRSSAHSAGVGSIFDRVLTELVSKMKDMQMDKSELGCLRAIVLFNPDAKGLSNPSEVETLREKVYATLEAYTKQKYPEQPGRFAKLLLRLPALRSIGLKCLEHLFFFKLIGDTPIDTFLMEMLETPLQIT
The experiment is described as follows: holoreceptor transactivation assay, RXRγ. The experiment is classed as cell-based. Conditions: for EC50: read-out: EC50 (nM) RXR γ.
Text: as §1, §2

Experiment [4] concerns the target T2, RXRβ. The experiment is described as follows: holoreceptor transactivation assay, RXRβ. Type of experiment: cell-based. Particulars: for EC50: read-out: EC50 (nM) RXR β.
Text: as §1, §2

The target in experiment [5] is T3, RXRγ. Briefly: ligand binding assay, RXRγ. Particulars: read-out: Kd (nM) RXR γ.
Text: as §1, §2

Experiment [6] has as its target T1, RXRα. The experiment is described as follows: ligand binding assay, RXRα. Conditions: read-out: Kd (nM) RXR α.
Text: as §1, §2

The term EC50 denotes the midpoint of the concentration-response curve. As a reminder, the Kd is the equilibrium constant for the complex coming apart.

For `CCc1oc2ccc([C@@]3(C)C[C@H]3/C=C/C(C)=C/C(=O)O)cc2c1C(C)(C)C` [Compound 12, 3-Methyl-6(S),7(S)-methano-7-(3-t-butyl-2-ethyl-benzofur-5-yl)-octa-2(E),4(E)-dienoic acid], the “% Eff RXR α” value on RXRα [1] came out at 144%. Moreover, the values for the EC50 at RXRα [1], at RXRγ [3] and at RXRβ [4] were 1.5 nM, 2.9 nM and 17 nM, respectively. The dissociation constant Kd at RXRβ [2] came to 20 nM; at RXRγ [5] it was 40 nM; at RXRα [6], 11 nM. Also, the “% Eff RXR γ” value at RXRγ [3] was found to be 131%. The “% Eff RXR β” value at RXRβ [4] turned out to be 150%.
As for `CCc1oc2ccc([C@@]3(C)C[C@H]3/C=C/C(C)=C/C(=O)O)cc2c1CC` [Compound 20, 3-Methyl-6(S),7(S)-methano-7-(2,3-di-ethyl-benzofur-5-yl)-octa-2(E),4(E)-dienoic acid], the “% Eff RXR α” value at RXRα [1] amounted to 130%. In addition, the half-maximal effective concentration (EC50) on RXRα [1] was determined as 6 nM; at RXRγ [3], 12 nM; at RXRβ [4] it was 44 nM. Moreover, the Kd on RXRβ [2] is 288 nM; on RXRγ [5], 256 nM; on RXRα [6], 71 nM. For the same molecule, the “% Eff RXR γ” value on RXRγ [3] worked out at 90%. In addition, the “% Eff RXR β” value at RXRβ [4] turned out to be 90%.
For `CCc1oc2ccc([C@@]3(C)C[C@H]3/C=C/C(C)=C/C(=O)O)cc2c1C(C)C` [Compound 28, 3-Methyl-6(S),7(S)-methano-7-(2-ethyl-3-iso-propyl-benzofur-5-yl)-octa-2(E),4(E)-dienoic acid], the “% Eff RXR α” value at RXRα [1] stood at 102%. Also, the concentration for a half-maximal effect (EC50) was determined as 0.7 nM at RXRα [1], 0.8 nM on RXRγ [3] and 4.3 nM at RXRβ [4]. Besides, the Kd at RXRβ [2] is 17 nM; at RXRγ [5], 48 nM; on RXRα [6], 6.8 nM. On RXRγ [3], the “% Eff RXR γ” value turned out to be 110%. The “% Eff RXR β” value on RXRβ [4] is recorded as 116%.
As for `CCCCCc1oc2ccc([C@@]3(C)C[C@H]3/C=C/C(C)=C/C(=O)O)cc2c1C(C)(C)C` [Compound 38, 3-Methyl-6(S),7(S)-methano-7-(3-t-butyl-2-n-pentyl-benzofur-5-yl)-octa-2(E),4(E)-dienoic acid], the “% Eff RXR α” value at RXRα [1] worked out at 100%. The EC50 was determined as 2.2 nM at RXRα [1], 2.6 nM at RXRγ [3] and 9.3 nM at RXRβ [4]. Also, the figures for the Kd on RXRβ [2], at RXRγ [5] and on RXRα [6] were 98 nM, greater than 1000 nM and 19.5 nM, respectively. Moreover, the “% Eff RXR γ” value at RXRγ [3] is on record as 101%. On RXRβ [4], the “% Eff RXR β” value worked out at 96%.
